Patent publication US20050209278A1, “Piperidinyl- and piperazinyl-sulfonylmethyl hydroxamic acids and their use as protease inhibitors” (priority 2002, published 2005)
Where two headings read alike, the source gives them in different places.

Legend:
[1] = target: T1, MMP-14 (Homo sapiens, UniProt P50281); assay: In vitro MMP inhibition, Ki determination (fluorogenic substrate II); type: biochemical; details: read-out: MMP-14 Ki
T1 construct: The catalytic domain enzyme was expressed in E. coli inclusion bodies, solubilized in urea; made in house
Summary of the method: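 E. coli-expressed, refolded MMP-14 catalytic domain, activated with APMA or trypsin, in 100 mM Tris-HCl pH 7.5, 100 mM NaCl, 10 mM CaCl2, 0.05% Brij-type detergent. Apparent Ki by Morrison-equation regression of velocity vs inhibitor and enzyme concentration.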

[2] = target: T2, MMP-13 (Homo sapiens, UniProt P45452); assay: as above; type: biochemical; details: read-out: MMP-13 Ki
T2 construct: made in house; host or cells: baculovirus / insect cells
Summary of the method: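 Ki determined with human recombinant MMP-13, baculovirus-expressed as proenzyme and activated with APMA. Fluorogenic MCA/Dpa substrate II at 4 μM (at or below Km) with low enzyme in Tris buffer pH 7.5 with CaCl2. Incubation was 1 h at room temperature, with fluorescence read at 330/420 nm.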

| SMILES | Ki ([1]; value not in parenthesis) | Ki ([2]; value not in parenthesis) | Ki ([1]; value outside parentheses) | Ki ([2]; value outside parentheses) |
| --- | --- | --- | --- | --- |
| CCCCc1ccc(N2CCN(S(=O)(=O)C3(C(=O)NO)CCN(c4ncccn4)CC3)CC2)nc1 [Example 99] | 225 nM | 0.3 nM |  |  |
| CCCCOc1ccc(N2CCN(S(=O)(=O)C3(C(=O)NO)CCOCC3)CC2)nc1 [Example 100] | 411 nM | 0.06 nM |  |  |
| CCCCOc1ccc(N2CCN(S(=O)(=O)C3(C(=O)NO)CCN(c4ccc(Cl)c(Cl)c4)CC3)CC2)cc1 [Example 250] | > 10000 nM | 18.4 nM |  |  |
| CCCCOc1ccc(N2CCN(S(=O)(=O)C3(C(=O)NO)CCN(c4ccc(Cl)cc4)CC3)CC2)cc1 [Example 251] |  |  | > 10000 nM | 12.9 nM |
| CCCCOc1ccc(N2CCN(S(=O)(=O)C3(C(=O)NO)CCN(Cc4ccco4)CC3)CC2)cc1 [Example 252] |  |  | 5180 nM | 0.373 nM |
| CCCCOc1ccc(N2CCN(S(=O)(=O)C3(C(=O)NO)CCN(C(N)=O)CC3)CC2)cc1 [Example 253] |  |  | 1930 nM | 0.357 nM |
| CCCCOc1ccc(N2CCN(S(=O)(=O)C3(C(=O)NO)CCN(C(=O)N(C)C)CC3)CC2)cc1 [Example 254] |  |  | 856 nM | 0.1 nM |
| CCCCOc1ccc(N2CCN(S(=O)(=O)C3(C(=O)NO)CCN(C(=O)c4ccccc4)CC3)CC2)cc1 [Example 255] |  |  | 5660 nM | 0.39 nM |
| CCCCOc1ccc(N2CCN(S(=O)(=O)C3(C(=O)NO)CCN(c4ccc(C(F)(F)F)cn4)CC3)CC2)cc1 [Example 257] |  |  | > 10000 nM | 12.9 nM |
| O=C(NO)C1(S(=O)(=O)N2CCN(c3ccc(SC(F)(F)F)cc3)CC2)CCS(=O)(=O)CC1 [Example 258] |  |  | 4890 nM | 30.5 nM |
| CCCCOc1ccc(N2CCN(S(=O)(=O)C3(C(=O)NO)CCN(C(=O)c4ccncc4)CC3)CC2)cc1 [Example 259] |  |  | 2650 nM | 0.359 nM |
| CCCCOc1ccc(N2CCN(S(=O)(=O)C3(C(=O)NO)CCN(C(=O)C4CC4)CC3)CC2)cc1 [Example 260] |  |  | 2800 nM | 0.301 nM |
| CCc1ccc(N2CCN(S(=O)(=O)C3(C(=O)NO)CCCC3)CC2)nc1 [Example 261] |  |  | 48.1 nM | 0.458 nM |
| CCc1ccc(N2CCN(S(=O)(=O)C3(C(=O)NO)CCCCC3)CC2)nc1 [Example 263] |  |  | 34 nM | 0.262 nM |
| CCCCOc1ccc(N2CCN(S(=O)(=O)C3(C(=O)NO)CCN(c4ccccc4)CC3)CC2)cc1 [Example 264] |  |  | > 10000 nM | 0.048 nM |
| CCCCOc1ccc(N2CCN(S(=O)(=O)C3(C(=O)NO)CCN(C(=O)CC(F)(F)F)CC3)CC2)cc1 [Example 265] |  |  | 3790 nM | 0.637 nM |
| CCCCOc1ccc(N2CCN(S(=O)(=O)C3(C(=O)NO)CCN(C(=O)c4cccnc4)CC3)CC2)cc1 [Example 266] |  |  | 2390 nM | 0.308 nM |
| CCCCOc1ccc(N2CCN(S(=O)(=O)C3(C(=O)NO)CCN(C(=O)C(C)(C)C)CC3)CC2)cc1 [Example 267] |  |  | > 10000 nM | 0.64 nM |
| CCCCOc1ccc(N2CCN(S(=O)(=O)C3(C(=O)NO)CCN(C(=O)COC)CC3)CC2)cc1 [Example 268] |  |  | 1390 nM | 0.311 nM |
| CCCCOc1ccc(N2CCN(S(=O)(=O)C3(C(=O)NO)CCN(C=O)CC3)CC2)cc1 [Example 269] |  |  | 1200 nM | 0.25 nM |
| CCCCc1ccc(N2CCN(S(=O)(=O)C3(C(=O)NO)CCN(CCOC)CC3)CC2)nc1 [Example 270] |  |  | 1110 nM | 0.339 nM |
| CCCCOc1ccc(N2CCN(S(=O)(=O)C3(C(=O)NO)CCN(C(=O)CO)CC3)CC2)cc1 [Example 271] |  |  | 1460 nM | 0.452 nM |
| CCCCCc1ccc(N2CCN(S(=O)(=O)C3(C(=O)NO)CCN(C4CC4)CC3)CC2)cc1 [Example 272] |  |  | 4350 nM | 0.33 nM |
| CCCCOc1ccc(N2CCN(S(=O)(=O)C3(C(=O)NO)CCN(C(=O)C(C)C)CC3)CC2)cc1 [Example 273] |  |  | 5090 nM | 0.313 nM |
| CCCCOc1ccc(N2CCN(S(=O)(=O)C3(C(=O)NO)CCN(C(=O)CC)CC3)CC2)cc1 [Example 274] |  |  | 3030 nM | 0.484 nM |
| CCCCOc1ccc(N2CCN(S(=O)(=O)C3(C(=O)NO)CCN(c4ccc(C)nn4)CC3)CC2)cc1 [Example 275] |  |  | 818 nM | 0.216 nM |
